According to US10723692B2, “Lipids and lipid nanoparticle formulations for delivery of nucleic acids” (Acuitas Therapeutics, Inc., priority 2014, dated 2020):
Read-outs that look alike come from different tables or passages of the source.

How the values were obtained:
[1] = test system: hFIX protein in mouse plasma; test: LNP delivery of human FIX mRNA, hFIX protein in mouse plasma by ELISA; format: in vivo; settings: for Human Factor IX @ 0.3 mg/kg (ng mL in plasma): 0.3 mg/kg hFIX mRNA LNP; for Human Factor IX @ 0.3 mg/kg (ng mL in plasma) / Human Factor IX @ 1.0 mg/kg (ng mL in plasma): ELISA; for Human Factor IX @ 1.0 mg/kg (ng mL in plasma): 1.0 mg/kg hFIX mRNA LNP; for measured levels of hFIX expression (assessment): hFIX mRNA LNPs
Procedure: The LNPs with cationic lipids shown in Table 7 are formulated with mRNA coding for human FIX (e.g. TriLink Biotechnologies product L-6110) using the following molar ratio of lipids: 50% lipid/10% distearoylphosphatidylcholine (DSPC)/38.5% Cholesterol/1.5% PEG-lipid as described in EXAMPLE 47. Plasma protein is analyzed by ELISA using a commercially available kit (e.g. Abcam ab108831) as per the suppliers instructions. […] The duration of the hFIX at these levels is ˜15 hours or longer.

[2] = pKa of formulated cationic lipids in lipid nanoparticles (TNS fluorescence assay); format: physicochemical
Procedure: As described elsewhere, the pKa of formulated cationic lipids is correlated with the effectiveness of LNPs for delivery of nucleic acids (see Jayaraman et al, Angewandte Chemie, International Edition (2012), 51(34), 8529-8533; Semple et al, Nature Biotechnology 28, 172-176 (2010)). The preferred range of pKa is ˜5 to ˜7. […] Lipid nanoparticles comprising of cationic lipid/DSPC/cholesterol/PEG-lipid (50/10/38.5/1.5 mol %) in PBS at a concentration of 0.4 mM total lipid are prepared using the in-line process as described in EXAMPLE 47. TNS was prepared as a 100 μM stock solution in distilled water. Vesicles were diluted to 24 μM lipid in 2 mL of buffered solutions containing, 10 mM HEPES, 10 mM MES, 10 mM ammonium acetate, 130 mM NaCl, where the pH ranged from 2.5 to 11. An aliquot of the TNS solution was added to give a final concentration of 1 μM and following vortex mixing fluorescence intensity was measured at room temperature in a SLM Aminco Series 2 Luminescence Spectrophotometer using excitation and emission wavelengths of 321 nm and 445 nm. A sigmoidal best fit analysis was applied to the fluorescence data and the pKa was measured as the pH giving rise to half-maximal fluorescence intensity (see FIG. 2).

[3] = test system: cherry red (CR) red fluorescent protein expression in liver; test: LNP activity using cherry red (CR) mRNA, liver sections by confocal fluorescence microscopy; format: in vivo, C57BL/6 mice
Procedure: LNPs using compound 6 are formulated as described in EXAMPLE 47 with mRNA coding for a red fluorescent protein called cherry red (CR, e.g. TriLink Biotechnologies product L-6113). In vivo studies are conducted as described in EXAMPLE 47 and sections of liver tissue are processed and observed by confocal fluorescence microscopy at 4, 6 and 24 hours post administration. Expression levels peaked at around 6 hours and maintained to at least 24 hours.

[4] = test system: luciferase expression in the liver; test: In vivo luciferase mRNA expression rodent model (LNP, liver luciferase); set-up: species or system C57BL/6 mice; settings: tail vein, liver 4 hours; for Liver Luc @ 0.3 mg/kg (ng luc/g liver): 0.3 mg mRNA/kg; for Liver Luc @ 1.0 mg/kg (ng luc/g liver): 1.0 mg mRNA/kg
Procedure: Cationic lipid (MC3), DSPC, cholesterol and PEG-lipid were solubilized in ethanol at a molar ratio of 50:10:38.5:1.5. Lipid nanoparticles (LNP) were prepared at a total lipid to mRNA weight ratio of approximately 10:1 to 30:1. Briefly, the mRNA was diluted to 0.2 mg/mL in 10 to 50 mM citrate buffer, pH 4. Syringe pumps were used to mix the ethanolic lipid solution with the mRNA aqueous solution at a ratio of about 1:5 to 1:3 (vol/vol) with total flow rates above 15 ml/min. The ethanol was then removed and the external buffer replaced with PBS by dialysis. Finally, the lipid nanoparticles were filtered through a 0.2 μm pore sterile filter. Lipid nanoparticle particle size was 70-90 nm diameter as determined by quasi-elastic light scattering using a Nicomp 370 submicron particle sizer (Santa Barbara, Calif.).
Studies were performed in 6-8 week old female C57BL/6 mice (Charles River) according to guidelines established by an institutional animal care committee (ACC) and the Canadian Council on Animal Care (CCAC). Varying doses of mRNA-lipid nanoparticle were systemically administered by tail vein injection and animals euthanized at specific time points (1, 2, 4, 8 and 24 hrs) post-administration. Liver and spleen were collected in pre-weighted tubes, weights determined, immediately snap frozen in liquid nitrogen and stored at −80° C. until processing for analysis.
For liver, approximately 50 mg was dissected for analyses in a 2 mL FastPrep tubes (MP Biomedicals, Solon Ohio). ¼″ ceramic sphere (MP Biomedicals) was added to each tube and 500 μL of Glo Lysis Buffer—GLB (Promega, Madison Wis.) equilibrated to room temperature was added to liver tissue. Liver tissues were homogenized with the FastPrep24 instrument (MP Biomedicals) at 2×6.0 m/s for 15 seconds. Homogenate was incubated at room temperature for 5 minutes prior to a 1:4 dilution in GLB and assessed using SteadyGlo Luciferase assay system (Promega). Specifically, 50 μL of diluted tissue homogenate was reacted with 50 μL of SteadyGlo substrate, shaken for 10 seconds followed by 5 minute incubation and then quantitated using a CentroXS^3 LB 960 luminometer (Berthold Technologies, Germany). The amount of protein assayed was determined by using the BCA protein assay kit (Pierce, Rockford Ill.). Relative luminescence units (RLU) were then normalized to total ug protein assayed. To convert RLU to ng luciferase a standard curve was generated with QuantiLum Recombinant Luciferase (Promega). Based in the data provided in FIG. 1, the four-hour time point was chosen for efficacy evaluation of the lipid formulations (see EXAMPLE 48).
The FLuc mRNA (L-6107) from Trilink Biotechnologies will express a luciferase protein, originally isolated from the firefly, Photinus pyralis. FLuc is commonly used in mammalian cell culture to measure both gene expression and cell viability. It emits bioluminescence in the presence of the substrate, luciferin. This capped and polyadenylated mRNA is fully substituted with 5-methylcytidine and pseudouridine.
The cationic lipids shown in Table 2 have previously been tested with nucleic acids. For comparative purposes, these lipids were also used to formulate lipid nanoparticles containing the FLuc mRNA (L-6107) using an in line mixing method, as described in EXAMPLE 47 and in PCT/US10/22614, which is hereby incorporated by reference in its entirety. Lipid nanoparticles were formulated using the following molar ratio: 50% Cationic lipid/10% distearoylphosphatidylcholine (DSPC)/38.5% Cholesterol/1.5% PEG lipid (“PEG-DMG”, i.e., (1-(monomethoxy-polyethyleneglycol)-2,3-dimyristoylglycerol, with an average PEG molecular weight of 2000). Relative activity was determined by measuring luciferase expression in the liver 4 hours following administration via tail vein injection as described in EXAMPLE 47. The activity was compared at a dose of 0.3 and 1.0 mg mRNA/kg and expressed as ng luciferase/g liver measured 4 hours after administration, as described in EXAMPLE 47. […]

[5] = Table 3, in LNP cationic lipid/DSPC/cholesterol/PEG-lipid 50/10/38.5/1.5 mol %, read-out: pKa
[6] = Table 3, LNP with 1.5% PEG-DMA (42-6), FLuc mRNA
[7] = Table 5, LNP with 1.5% PEG-lipid (42-6)
[8] = Table 6, LNP with 1.5% PEG-lipid (42-6)

In the case of CCCCC/C=C\C/C=C\CCCCCCCCC(CCCCCCCC/C=C\C/C=C\CCCCC)OC(=O)CCCN(C)C [MC3, reference compound], the “Human Factor IX @ 0.3 mg/kg (ng mL in plasma)” value (from here on “Human Factor IX @ 0.3 mg/kg”) [1] is reported as 336 ± 21 ng·mL, the “Human Factor IX @ 1.0 mg/kg (ng mL in plasma)” value (“Human Factor IX @ 1.0 mg/kg” below) [1] is reported as 1154 ± 25 ng·mL and the pKa ([2]; Table 5, in LNP, read-out: pKa) is reported as 6.09.
For CCCCCCCCC(CCCCCC)C(=O)OCCCCCCCCCN(CCCCCCCCCOC(=O)C(CCCCCC)CCCCCCCC)CCN(C)C (stereo not drawn) [Compound 6], the “Human Factor IX @ 0.3 mg/kg” value [1] was 713 ± 148 ng·mL, the “Human Factor IX @ 1.0 mg/kg” value [1] was 2697 ± 345 ng·mL and the “measured levels of hFIX expression (assessment)” value [1] was “clinically relevant”. The pKa [2, 5] was 6.12, the pKa ([2]; Table 5, in LNP) was 6.12 and the pKa ([2]; Table 6, in LNP) was 6.12. For the same compound, the “time of peak expression levels” value ([3]; liver sections observed at 4, 6 and 24 hours post administration) was “around 6 hours”, the “distribution of expression in tissue sections” value ([3]; liver sections, confocal fluorescence microscopy) was “homogeneous expression throughout the liver” and the “expression maintained to” value ([3]; liver sections, post administration) was “at least 24 hours”. The “Liver Luc @ 0.3 mg/kg (ng luc/g liver)” value [4, 6] was 2015 ± 135 ng luc/g liver, the “Liver Luc @ 1.0 mg/kg (ng luc/g liver)” value [4, 6] was 16006 ± 2487 ng luc/g liver and the “Liver Luc @ 0.3 mg/kg (ng luc/g liver)” value [4, 7] was 2015 ± 135 ng luc/g liver. The “Liver Luc @ 1.0 mg/kg (ng luc/g liver)” value [4, 7] was 16006 ± 2487 ng luc/g liver, the “Liver Luc @ 0.3 mg/kg (ng luc/g liver)” value [4, 8] was 2015 ± 135 ng luc/g liver and the “Liver Luc @ 1.0 mg/kg (ng luc/g liver)” value [4, 8] was 16006 ± 2487 ng luc/g liver.
In the case of CCCCCCCCCCCOC(=O)CCCCCCCN(CCCCCCCC(=O)OCCCCCCCCCCC)CCN(C)C [Compound 16], the pKa [2, 5] is reported as 6.63, the “Liver Luc @ 0.3 mg/kg (ng luc/g liver)” value [4, 6] is reported as 7 ± 1 ng luc/g liver and the “Liver Luc @ 1.0 mg/kg (ng luc/g liver)” value [4, 6] is reported as 14 ± 4 ng luc/g liver.
For CCCCCCCC/C=C/COC(=O)CCCCCCCN(CCCCCCCC(=O)OC/C=C/CCCCCCCC)CCN(C)C [Compound 19], the pKa [2, 5] was 6.72, the “Liver Luc @ 0.3 mg/kg (ng luc/g liver)” value [4, 6] was 8 ± 3 ng luc/g liver and the “Liver Luc @ 1.0 mg/kg (ng luc/g liver)” value [4, 6] was 15 ± 21 ng luc/g liver.
In the case of CCCCCCCCC(CCCCCC)C(=O)OCCCCCCN(CCCCCCOC(=O)C(CCCCCC)CCCCCCCC)CCN(C)C (stereo not drawn) [Compound 5], the “Human Factor IX @ 0.3 mg/kg” value [1] is reported as 1097 ± 357 ng·mL, the “Human Factor IX @ 1.0 mg/kg” value [1] is reported as 4556 ± 686 ng·mL and the “measured levels of hFIX expression (assessment)” value [1] is reported as “clinically relevant”. For the same compound, the pKa [2, 5] was 6.28, the pKa ([2]; Table 5, in LNP) was 6.28 and the “Liver Luc @ 0.3 mg/kg (ng luc/g liver)” value [4, 6] was 1571 ± 414 ng luc/g liver. The “Liver Luc @ 1.0 mg/kg (ng luc/g liver)” value [4, 6] was 12900 ± 4083 ng luc/g liver, the “Liver Luc @ 0.3 mg/kg (ng luc/g liver)” value [4, 7] was 1571 ± 414 ng luc/g liver and the “Liver Luc @ 1.0 mg/kg (ng luc/g liver)” value [4, 7] was 12900 ± 4083 ng luc/g liver.
In the case of CC(C)=CCCC(C)CC(=O)OCCCCCCCCCCCCN(CCCCCCCCCCCCOC(=O)CC(C)CCC=C(C)C)CCN(C)C (stereo not drawn) [Compound 35], the pKa [2, 5] is reported as 6.21, the “Liver Luc @ 0.3 mg/kg (ng luc/g liver)” value [4, 6] is reported as 35 ± 15 ng luc/g liver and the “Liver Luc @ 1.0 mg/kg (ng luc/g liver)” value [4, 6] is reported as 101 ± 69 ng luc/g liver.
In the case of CCCCCCC(CCCC)COC(=O)CCCCCCCCCN(CCCCCCCCCC(=O)OCC(CCCC)CCCCCC)CCN(C)C (stereo not drawn) [Compound 21], the pKa [2, 5] is reported as 6.28, the “Liver Luc @ 0.3 mg/kg (ng luc/g liver)” value [4, 6] is reported as 404 ± 103 ng luc/g liver and the “Liver Luc @ 1.0 mg/kg (ng luc/g liver)” value [4, 6] is reported as 4149 ± 2514 ng luc/g liver.
With CCCCCC(CCCC)OC(=O)CCCCCCCCCN(CCCCCCCCCC(=O)OC(CCCC)CCCCC)CCN(C)C (stereo not drawn) [Compound 11] the pKa [2, 5] was 6.36, the “Liver Luc @ 0.3 mg/kg (ng luc/g liver)” value [4, 6] was 328 ± 12 ng luc/g liver and the “Liver Luc @ 1.0 mg/kg (ng luc/g liver)” value [4, 6] was 1266 ± 522 ng luc/g liver.
In the case of CCCCCCCCC(CCCCCC)COC(=O)CCCCCN(CCCCCC(=O)OCC(CCCCCC)CCCCCCCC)CCN(C)C (stereo not drawn) [Compound 22], the pKa [2, 5] is reported as 6.53, the “Liver Luc @ 0.3 mg/kg (ng luc/g liver)” value [4, 6] is reported as 2126 ± 294 ng luc/g liver and the “Liver Luc @ 1.0 mg/kg (ng luc/g liver)” value [4, 6] is reported as 14486 ± 6607 ng luc/g liver.
